Test results as given in PMC12081029, “Structural, Spectroscopic, and Docking Analysis of N,O‐Donor Ligand Metal Complex Nanoparticles With Hypolipidemic Effects via Lipoprotein Lipase Activation in High‐Fat Diet Mice” (Chemistry & Biodiversity, 2024).
“And” between values parts separate entries of the source, which are not always exact repeats. Equal values may be shown once. Read-outs that look alike come from different tables or passages of the source.

Experiments:
Salmonella typhi [1] = system: Salmonella typhi; set-up: method as in PMID 16740311; settings: cited from earlier work
Bacillus subtilis [2] = settings: cited from earlier work
Aspergillus niger [3] = system: Aspergillus niger; set-up: method as in PMID 16740311; settings: cited from earlier work
Staphylococcus aureus [4] = settings: cited from earlier work
Escherichia coli [5] = settings: cited from earlier work
Salmonella typhi [6] = assay: Agar diffusion, inhibition zone (ZOI) and activity index; format: cell-based; settings: Salmonella typhi
Staphylococcus aureus [7] = assay: MIC / MBC determination
Salmonella typhi [8] = assay: MIC / MBC determination; format: cell-based; settings: Salmonella typhi
[9] = system: lipoprotein lipase (L. lipase); assay: Serum L. lipase activity in high-fat diet mice (fluorometric kit); format: in vivo; settings: HFD C57BL/6 mice; for L. lipase (serum enzyme activity): 4 mg kg^−1 body weight in DMF, 3 months, mean ± SD
Protocol: (§1) This study employed 8‐week‐old male C57BL/6 mice of matched weight (around 20–25 g) from an inbred “genetically identical” strain. The mice were purchased from the National Research Center's Animal House. Then, they were subdivided into five groups, each group containing eight mice; four groups were treated with CETZ.2HCl (antihistamine drug) and its metal complexes, whereas one group was left untreated and classified as a control group. Animals were housed in modular plastic veterinary cages at air‐conditioned room, under pathogen‐free conditions. Mice were fed HFD, which consisted of carbs 42.0%, fat 23.0%, protein 17.0%, fiber 3.0%, minerals 5.0%, and moisture 10.0% for 3 months, together with administration of either CETZ.2HCl or its metal complexes (4 mg kg ^−1 body weight) in DMF [37]. Experiments were performed in accordance with the regulations of the Animal Care and Use Committee of the College of Veterinary Medicine, Mansoura University (MU‐ACUC), Egypt; MU‐ACUC (PHARM.R.24.02.30), complied with “Guide for the Care and Use of Laboratory Animals” (National Research Council publication 8th ed., USA, 2011).
(§2) Specimens of blood were gathered from the retro‐orbital sinus, under halothane (1.5 percent v/v halothane in oxygen) anesthesia via inhalation. The collected blood was allowed to clot, by centrifugation at 1600 rpm for 20 min, to obtain serum. Isolated sera were maintained at −80°C until tests of liver function in addition to lipid profiles were performed. For estimation of L. lipase activity, fluorometric L. lipase activity assay kit was utilized following the manufacturer's protocol (Cat. No. STA‐610, Cell BIOLABS INC., San Diego, USA). Serum T. chol. LDL, HDL, TG, ALT (alanine aminotransferase), AST (aspartate aminotransferase), and ALP (alkaline phosphatase) were examined with Roche kits using COBAS Integra 400 and COBAS Integra‐400 plus (Roche Diagnostics Limited, Switzerland).

Bacillus subtilis [10] = assay: Agar diffusion, inhibition zone (ZOI) and activity index; settings: Bacillus subtilis
Aspergillus niger [11] = assay: MIC determination
Aspergillus terreus [12] = assay: MIC determination
Bacillus subtilis [13] = assay: MIC / MBC determination
Aspergillus niger [14] = assay: Agar diffusion, inhibition zone (ZOI) and activity index; settings: Aspergillus niger
Escherichia coli [15] = assay: MIC / MBC determination
[16] = Serum lipid profile in high-fat diet mice; format: in vivo; settings: HFD C57BL/6 mice, 4 mg kg^−1 body weight, 3 months, mean ± SD
Protocol: as §1, §2

Escherichia coli [17] = assay: Agar diffusion, inhibition zone (ZOI) and activity index; settings: Escherichia coli
[18] = Serum liver function enzymes in high-fat diet mice; format: in vivo; settings: HFD C57BL/6 mice, 4 mg kg^−1 body weight, 3 months, mean ± SD
Protocol: as §1, §2

Aspergillus terreus [19] = assay: Agar diffusion, inhibition zone (ZOI) and activity index
Staphylococcus aureus [20] = assay: as above; settings: Staphylococcus aureus
[21] = Table 9, preceding research ref [68]
[22] = 10^−3 M in DMF, 5 mm holes, 20 h at 37°C
[23] = ZOI of compound / ZOI of standard (gentamicin) × 100
[24] = ZOI of compound / ZOI of standard (ampicillin) × 100
[25] = 10^−3 M in DMF, 5 mm holes, 7 days at 30°C
[26] = ZOI of compound / ZOI of standard (colitrimazole) × 100

O.O.O=C([O-])COCCN1CCN(C(c2ccccc2)c2ccc(Cl)cc2)CC1.O=[N+]([O-])[O-].[Cu+2].c1ccc(-c2ccccn2)nc1 (centres unmarked) [[(Cu(CETZ)(Bipy)(H2O)2(NO3)]]
AI (Salmonella typhi [1]; Table 9, Salmonella typhi ref [68]): 59.9 | Salmonella typhi (inhibition zone) (Salmonella typhi [1]; [21]): 12.4 ^+ ^1 ± 0.22 | AI (Bacillus subtilis [2]; Table 9, Bacillus subtillis ref [68]): 55.3 | Bacillus subtillis (inhibition zone) (Bacillus subtilis [2]; [21]): 15.7 ^+ ^1 ± 0.001 | AI (Aspergillus niger [3]; Table 9, Aspergillus niger ref [68]): 88.89 | Aspergillus niger (inhibition zone) (Aspergillus niger [3]; [21]): 17.6 ^+ ^1 ± 0.11 | AI (Staphylococcus aureus [4]; Table 9, Staphylococcus aureus ref [68]): 105.7 | Staphylococcus aureus (inhibition zone) (Staphylococcus aureus [4]; [21]): 24 ^+ ^3 ± 0.13 | AI (Escherichia coli [5]; Table 9, Escherichia coli ref [68]): 113.3 | Escherichia coli (inhibition zone) (Escherichia coli [5]; [21]): 22.1 ^+ ^2 ± 0.005

[Zn(CETZ)(Phen)(H2O)2Cl] [complex (2)]
ZOI (Salmonella typhi [6]; [22]): 18.0 ^+ ^2 ±0.17 mm | AI (Salmonella typhi [6]; [23]): 86.9% | MBC (Staphylococcus aureus [7]): 0.057 µg/mL and 0.057 ± 0.002 µg/mL | MIC (Staphylococcus aureus [7]): 0.050 µg/mL and 0.050 ± 0.007 µg/mL | MBC (Salmonella typhi [8]): 0.065 ± 0.014 µg/mL | MIC (Salmonella typhi [8]): 0.050 µg/mL and 0.050 ± 0.007 µg/mL | L. lipase (serum enzyme activity) [9]: 108.88 U/L | L. lipase (serum enzyme activity) ([9]; listed as Zn-CETZ Complex): 108.88±20.0 U/L | mean L. lipase activity ([9]; rounded, 4 mg kg^−1 body weight): 108.9 U L^−1 | ZOI (Bacillus subtilis [10]; [22]): 21.2 ^+ ^2 ±1.04 mm | AI (Bacillus subtilis [10]; [24]): 74.65% | MIC (Aspergillus niger [11]): 0.025 µg/mL and 0.025 ± 0.01 µg/mL | MIC (Aspergillus terreus [12]): 0.050 µg/mL and 0.050 ± 0.02 µg/mL | MIC (Bacillus subtilis [13]): 0.050 ± 0.01 µg/mL | ZOI (Aspergillus niger [14]; [25]): 17.6 ^+ ^1 ±0.43 mm | AI (Aspergillus niger [14]; [26]): 88.88% | MBC (Escherichia coli [15]): 0.063 ± 0.015 µg/mL | MIC (Escherichia coli [15]): 0.050 µg/mL and 0.050 ± 0.02 µg/mL | HDL [16]: 115.75 ± 13.32 mg/dL | LDL [16]: 71.63 ± 6.5 mg/dL | Total Chol. [16]: 155.5 ± 16.01 mg/dL | Trig [16]: 70.63 ± 6.05 mg/dL | ZOI (Escherichia coli [17]; [22]): 7.9^NS ±0.34 mm | AI (Escherichia coli [17]; [23]): 40.5% | ALP [18]: 49.63 ± 6.16 U L^−1 | ALT [18]: 164.87 ± 35.27 U L^−1 | AST [18]: 156.5 ± 16.12 U L^−1 | ZOI (Aspergillus terreus [19]; [25]): 12.0^NS ±1.71 mm | AI (Aspergillus terreus [19]; [26]): 68.57% | ZOI (Staphylococcus aureus [20]; [22]): 15.2 ^+ ^1 ±0.74 mm | AI (Staphylococcus aureus [20]; [24]): 66.9%
